# Reference: patent EP0137900B1, “Bis-platinum complexes as antitumor agents” (priority 1983, dated 1985)
# Columns and labels:
# [1] = Solubility (water, organic solvents, 1% NaHCO3, basic solutions); details: result in words
# [2] = test system: murine tumor line L1210 leukemia; assay: Antitumor screen against murine L1210 leukemia implanted in mice; assay type: in vivo, CDF1 mice; details: for Percent Increase in Lifespan: start 24 hours after inoculation of 1 x 10^6 L1210 cells in CDF1 mice; for toxic dose: L1210-bearing mice
# [3] = 1% nahco3
# [4] = in water; cited from earlier work
substance,measurement,setting,value
"5,5'-carbonylbistrimellito bis [(1,2-diaminocyclohexane)platinum(II)1 [Example 6]",solubility in 1% NaHC03 solution,[1],dissolves readily
"benzenepentacarboxylatobis[(1,2-diaminocyclohexane) platinum(ll)] [Example 1]",Percent Increase in Lifespan,"[2]; Dose 2.5 mg/kg, Daily x 7, intraperitoneally, in 1% NaHCO3",87%
same,Percent Increase in Lifespan,"[2]; Dose 2.5 mg/kg, schedule 'Drugs 1, 5 and 9' [sic], intraperitoneally",21%
same,Percent Increase in Lifespan,"[2]; Dose 5.0 mg/kg, Daily x 7, intraperitoneally, in 1% NaHCO3",117%
same,Percent Increase in Lifespan,"[2]; Dose 5.0 mg/kg, schedule 'Drugs 1, 5 and 9' [sic], intraperitoneally",43%
same,Percent Increase in Lifespan,"[2]; Dose 10.0 mg/kg, Daily x 7, intraperitoneally, in 1% NaHCO3",61%
same,Percent Increase in Lifespan,"[2]; Dose 10.0 mg/kg, schedule 'Drugs 1, 5 and 9' [sic], intraperitoneally",135%
same,Percent Increase in Lifespan,"[2]; Dose 20.0 mg/kg, schedule 'Drugs 1, 5 and 9' [sic], intraperitoneally",193%
same,toxic dose,[2]; daily x 7 schedule,20 mg/kg
same,toxic dose,"[2]; days 1, 5, 9 schedule",40 mg/kg
same,activity against the experimental murine tumor line L1210 leukemia,"[2]; dose range 2.5-20 mg/kg, result in words",active
same,solubility,[3],greater than 10 mg/ml
cis-[Pt(NH3)2Cl2] [Cisplatin],water solubility,[4],about 1 mg/ml
